Laboratory results taken from the supplement of paper PMC10307832.

What was measured:
Experiment in all cases: relative viability (nuclei count vs DMSO), 5 days (fraction); higher = more cells survive
[1] = compound: O=C(CCCCCCNC(=O)c1cnc(N(c2ccccc2)c2ccccc2)nc1)NO [Ricolinostat] + C[C@@H](Oc1cc(-c2cnn(C3CCNCC3)c2)cnc1N)c1c(Cl)ccc(F)c1Cl [Crizotinib] (partner 1 µM)
Summary of the method: (§1)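 The day after seeding in 1536-well plates, lung cancer cell lines were treated by pin tool with a single drug, or with a fixed anchor-drug dose together with five library-drug doses (not always all listed) in √10 steps. After 5 days, a combined fix-and-stain solution (final 0.05% Triton X-100, 1% formaldehyde, 1 ug/ml Hoechst) was added. Nuclei counted on 4× images gave relative viability as treated counts over vehicle counts, reported as the median of duplicate plates.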

[2] = compound: O=C(CCCCCCNC(=O)c1cnc(N(c2ccccc2)c2ccccc2)nc1)NO [Ricolinostat] + CC(=O)c1c(C)c2cnc(Nc3ccc(N4CCNCC4)cn3)nc2n(C2CCCC2)c1=O [Palbociclib] (partner 0.5 µM)
Summary of the method: as §1

[3] = compound: O=C(CCCCCCNC(=O)c1cnc(N(c2ccccc2)c2ccccc2)nc1)NO [Ricolinostat] + CC(=O)Nc1cccc(-n2c(=O)n(C3CC3)c(=O)c3c(Nc4ccc(I)cc4F)n(C)c(=O)c(C)c32)c1 [Trametinib] (partner 0.02 µM)
Summary of the method: as §1

[4] = compound: C1=CC=C(C(=C1)C2=CC=C(C=C2)C3=CSC4=C3C(=C(C(=O)N4)C#N)O)O + CS(=O)(=O)CCNCc1ccc(-c2ccc3ncnc(Nc4ccc(OCc5cccc(F)c5)c(Cl)c4)c3c2)o1 [Lapatinib] (partner 2 µM)
Summary of the method: as §1

Cell Line	relative viability ([1]; first compound 0.08 µM)	relative viability ([1]; first compound 0.253 µM)	relative viability ([1]; first compound 0.8 µM)	relative viability ([1]; first compound 2.53 µM)	relative viability ([2]; first compound 0.08 µM)	relative viability ([2]; first compound 0.253 µM)	relative viability ([2]; first compound 0.8 µM)	relative viability ([2]; first compound 2.53 µM)	relative viability ([3]; first compound 0.08 µM)	relative viability ([3]; first compound 0.253 µM)	relative viability ([3]; first compound 0.8 µM)	relative viability ([3]; first compound 2.53 µM)	relative viability ([4]; first compound 0.08 µM)	relative viability ([4]; first compound 0.253 µM)	relative viability ([4]; first compound 0.8 µM)	relative viability ([4]; first compound 2.53 µM)	relative viability ([4]; first compound 8 µM)
SW 1573	0.761	0.851	0.784	0.733	0.387	0.434	0.337	0.357	0.468	0.55	0.593	0.596	0.991	1.12	1.21	1.11	0.862
UMC-11	0.544	0.627	0.561	0.218	0.368	0.338	0.339	0.295	0.644	0.684	0.623	0.265	0.745	0.871	0.941	1	0.858
